The supplement of paper PMC3493320
Where “and” joins values, the source holds several entries; their conditions need not be identical. Equal values may be shown once.

How the values were obtained:
NCI-H295R [1] = assay: maximal response (efficacy) relative to DMSO (0%) and doxorubicin (-100%); higher = less growth inhibition; settings: 48 h
NCI-H295R [2] = assay: IC50 (antiproliferative, ATP content); settings: 48 h

| IC50 (NCI-H295R [2]) | SMILES | maximal response (NCI-H295R [1]) |
| --- | --- | --- |
| 18.8 µM | C=C1/C(=C\C=C2/CCC[C@]3(C)[C@@H]([C@H](C)CCCC(C)(C)O)CC[C@@H]23)C[C@@H](O)C[C@@H]1O | -140% |
| 23.7 µM | C=C1/C(=C\C=C2/CCC[C@]3(C)[C@@H]([C@H](C)CCCC(C)C)CC[C@@H]23)C[C@@H](O)C[C@@H]1O | -142% |
| 9.44 µM | CCCCCCCCCCC[C@@H](C[C@@H]1OC(=O)[C@H]1CCCCCC)OC(=O)C(CC(C)C)NC=O (some centres undefined) | -66.3% |
| 16.8 µM | CCN(CC)CCCN(c1ccccc1)C1Cc2ccccc2C1.Cl | -138% |
| 8.41 µM | CC(C)C[C@@H]1NC(=O)[C@H](CCCN)NC(=O)[C@H](C(C)C)NC(=O)[C@@H]2CCCN2C(=O)[C@@H](Cc2ccccc2)NC(=O)[C@H](CC(C)C)NC(=O)[C@H](CCCN)NC(=O)[C@H](C(C)C)NC(=O)[C@@H]2CCCN2C(=O)[C@@H](Cc2ccccc2)NC1=O | -121% |
| 0.0133 µM | COc1cc(NCc2ccc3nc(N)nc(N)c3c2C)cc(OC)c1OC.Cl.Cl.Cl | -80.4% |
| 21.1 µM | COc1cc(C(=O)NS(=O)(=O)c2ccccc2C)ccc1Cc1cn(C)c2ccc(NC(=O)OC3CCCC3)cc12 | -134% |
| 15 µM | CCN1C(=CC=Cc2sc3ccccc3[n+]2CC)Sc2ccccc21.[I-] | -149% |
| 16.8 µM | CC(C)(O)c1ccccc1CC[C@@H](SCC1(CC(=O)[O-])CC1)c1cccc(/C=C/c2ccc3ccc(Cl)cc3n2)c1.[Na+] | -142% |
| 26.6 µM | CC1(COc2ccc(CC3SC(=O)NC3=O)cc2)CCCCC1 (centres undefined) | -167% |
| 0.944 µM | O=[C@@]([C@@H]4C3=CC(C(C1=CC=CC(O)=C12)=O)=C(C(O)=C3[C@@H](O[C@@H]7O[C@H]([C@H]([C@@H](N(C)C)C7)O[C@H](O6)C[C@@H]([C@@H]([C@@H]6C)O[C@H](O5)CCC([C@@H]5C)=O)O)C)C[C@](CC)4O)C2=O)OC.Cl | -122% |
| 23.7 µM | CC[C@@H](C(=O)[C@@H](C)[C@@H](O)[C@H](C)CCc1ccc(C)c(O)c1C(=O)[O-])[C@H]1O[C@](CC)([C@H]2CC[C@](O)(CC)[C@H](C)O2)C[C@@H]1C.[Na+] | -159% |
| 1.19 µM and 1.88 µM | CC(=O)[C@]1(O)Cc2c(O)c3c(c(O)c2[C@@H](O[C@H]2C[C@H](N)[C@H](O)[C@H](C)O2)C1)C(=O)c1c(O)cccc1C3=O | -123% and -125% |
| 8.41 µM | C=CCNC1=C2C[C@@H](C)C[C@H](OC)[C@H](O)[C@@H](C)/C=C(\C)[C@H](OC(N)=O)[C@@H](OC)/C=C\C=C(/C)C(=O)NC(=CC1=O)C2=O | -105% |
| 2.37 µM | COc1cc(NCCCC(C)N)c2ncccc2c1 (centres undefined) | -124% |
| 7.5 µM | CCN(CC)CCNc1ccc(CO)c2sc3ccccc3c(=O)c12 | -124% |
| 23.7 µM | CC(C)=CCOc1ccc(C=CC(=O)c2ccc(OCC=C(C)C)cc2OCC(=O)O)cc1 | -145% |
| 0.0188 µM | CN(Cc1cnc2nc(N)nc(N)c2n1)c1ccc(C(=O)N[C@@H](CCC(=O)O)C(=O)O)cc1 | -74.9% |

Further lines, the molecule ahead of its results:

| SMILES | IC50 (NCI-H295R [2]) | maximal response (NCI-H295R [1]) |
| --- | --- | --- |
| O=[N+]([O-])c1ccc(O)c2ncccc12 | 3.35 µM | -85.4% |
| CCN1/C(=C\C=C\c2ccc3ccccc3[n+]2CC)C=Cc2ccccc21.[I-] | 23.7 µM | -134% |
| [O-]n1ccccc1=S.[O-]n1ccccc1=S.[Zn+2] | 2.66 µM | -125% |
| O=c1oc2ccccc2c(O)c1C(CC(O)c1ccc(-c2ccc(Br)cc2)cc1)c1ccccc1 (centres undefined) | 9.44 µM | -115% |
| CC[C@@H](C(=O)O)[C@@H]1O[C@@H]([C@@H](C)[C@H](O)[C@H](C)C(=O)[C@H](CC)[C@H]2O[C@]3(C=C[C@@H](O)[C@]4(CC[C@@](C)([C@H]5CC[C@](O)(CC)[C@H](C)O5)O4)O3)[C@H](C)C[C@@H]2C)[C@@H](C)C[C@@H]1C | 5.31 µM | -140% |
| COC(COC(N)=O)C1=C(N2CC2)C(=O)C(C)=C(N2CC2)C1=O (centres undefined) | 0.75 µM | -120% |
| O[C@]([C@@]([H])2CC3)(CC[C@@H]4[C@@](CO5)=CC5=O)[C@]4(C)C[C@@H](O)[C@]2([H])[C@]1(CO)[C@@]3(O)C[C@@H](O[C@H]6[C@H](O)[C@H](O)[C@@H](O)[C@H](C)O6)C[C@H]1O | 0.0841 µM and 0.106 µM | -111% and -116% |
| Oc1c(I)cc(Cl)c2cccnc12 | 8.41 µM | -64.3% |
| O=C(OC[C@H]1O[C@@H](OC(=O)c2cc(O)c(O)c(OC(=O)c3cc(O)c(O)c(O)c3)c2)[C@H](OC(=O)c2cc(O)c(O)c(OC(=O)c3cc(O)c(O)c(O)c3)c2)[C@@H](OC(=O)c2cc(O)c(O)c(OC(=O)c3cc(O)c(O)c(O)c3)c2)[C@@H]1OC(=O)c1cc(O)c(O)c(OC(=O)c2cc(O)c(O)c(O)c2)c1)c1cc(O)c(O)c(OC(=O)c2cc(O)c(O)c(O)c2)c1 | 7.5 µM | -122% |
| [C@@]32([C@@]([C@@H](/C1=C/C(=O)OC1)CC2)([C@H](O)C[C@H]4[C@H]3CC[C@H]9[C@@]4(CC[C@H](O[C@@H]5O[C@@H]([C@H]([C@H](C5)O)O[C@@H]8O[C@@H]([C@@H](O[C@@H]7O[C@@H]([C@@H](O[C@H]6[C@@H]([C@@H](O)[C@@H]([C@H](O6)CO)O)O)[C@H](C7)OC(=O)C)C)C(C8)O)C)C)C9)C)C)O (some centres undefined) | 0.299 µM | -118% |
| O=C(Nc1ccc(Br)cc1)c1cc(Br)cc(Br)c1O | 5.31 µM | -118% |
| O=S(=O)([O-])c1cc(O)c2c(N=Nc3ccc(Nc4ccccc4)c4c(S(=O)(=O)[O-])cccc34)cc(S(=O)(=O)[O-])cc2c1.[Na+].[Na+].[Na+] | 11.9 µM | -73.8% |
| O=C(Nc1cccc(C(F)(F)F)c1)c1cc(Br)cc(Br)c1O | 5.96 µM | -140% |
| Cc1cc(C(C#N)c2ccc(Cl)cc2)c(Cl)cc1NC(=O)c1cc(I)cc(I)c1O (centres undefined) | 4.22 µM | -130% |
| C[C@H]1CC[C@]2(NC1)O[C@H]1C[C@H]3[C@@H]4CC[C@H]5C[C@@H](O[C@@H]6O[C@H](CO)[C@H](O[C@@H]7O[C@H](CO)[C@@H](O)[C@H](O[C@@H]8OC[C@@H](O)[C@H](O)[C@H]8O)[C@H]7O[C@@H]7O[C@H](CO)[C@@H](O)[C@H](O)[C@H]7O)[C@H](O)[C@H]6O)CC[C@]5(C)[C@H]4CC[C@]3(C)[C@H]1[C@@H]2C | 1.88 µM | -127% |
| COc1cc2c(cc1OC)-c1c/c(=N\c3c(C)cc(C)cc3C)n(C)c(=O)n1CC2.Cl | 21.1 µM | -149% |
| C[CH2][Hg][S]c1ccccc1C(=O)[O-].[Na+] | 2.66 µM | -124% |
| CNC(=O)c1cc(Oc2ccc(NC(=O)Nc3ccc(Cl)c(C(F)(F)F)c3)cc2)ccn1.Cc1ccc(S(=O)(=O)O)cc1 | 10.6 µM | -129% |
| [K+].[K+].[O]=[Cr](=[O])([O-])[O][Cr](=[O])(=[O])[O-] | 11.9 µM | -166% |
